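In this assay, cells in 96-well plates receive the compound at five concentrations for 48 hours. Endpoints are linearly interpolated between the surrounding concentrations. TGI: total growth inhibition.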 A value given as a limit tells only on which side of the number the result lay.

The results in this text go back to PubChem BioAssay (NCI).

Some test systems named below: CAKI-1 renal; HL-60(TB) leukemia; SK-MEL-2 melanoma; ACHN renal; DU-145 prostate; SF-268 CNS; OVCAR-4 ovarian; SK-MEL-28 melanoma; SNB-75 CNS; UACC-257 melanoma; SF-539 CNS; IGROV1 ovarian; LOX IMVI melanoma; NCI-H23 lung; OVCAR-3 ovarian; NCI-H460 lung; OVCAR-8 ovarian; EKVX NSCLC; UO-31 renal.
Assay in all cases: NCI anticancer screen, dose series, 48 h

With `O=C1c2ccccc2NC(=O)C2C1C(c1ccccc1)CC2(O)c1ccccc1` (centres undefined), the TGI in the test on CAKI-1 renal, in the test on HL-60(TB) leukemia, in the test on SK-MEL-2 melanoma, with ACHN renal, with DU-145 prostate and in the test with SF-268 CNS was above 100 µM in each case. In addition, the TGI in the test on OVCAR-4 ovarian was above 100 µM; in the test on SK-MEL-28 melanoma, above 100 µM; in the test with SNB-75 CNS it was 0.0677 µM; in the test on UACC-257 melanoma, above 100 µM; in the test with SF-539 CNS, above 100 µM; in the test with IGROV1 ovarian, above 100 µM. Also, the TGI in the test on LOX IMVI melanoma, in the test on NCI-H23 lung, in the test on OVCAR-3 ovarian, with NCI-H460 lung, in the test with OVCAR-8 ovarian and in the test on EKVX NSCLC was above 100 µM throughout.
For the compound `Cc1ccc(NC(=O)CSc2nc(C)nc3c2sc(=S)n3-c2ccccc2)cc1`, the TGI with CAKI-1 renal, with HL-60(TB) leukemia, in the test with SK-MEL-2 melanoma, in the test with ACHN renal, in the test with DU-145 prostate and in the test on SF-268 CNS was above 10 µM throughout. In addition, the TGI in the test on OVCAR-4 ovarian was 6.06 µM; in the test on SK-MEL-28 melanoma it was above 10 µM; in the test on SNB-75 CNS, 4.84 µM; with UACC-257 melanoma, above 10 µM; in the test on SF-539 CNS, 7.81 µM; with IGROV1 ovarian it was above 10 µM. The TGI in the test with LOX IMVI melanoma, in the test on NCI-H23 lung, with OVCAR-3 ovarian, in the test with NCI-H460 lung, in the test with OVCAR-8 ovarian and with EKVX NSCLC was above 10 µM each time.
In the case of `COc1cc(NC(C)=O)ccc1C(=O)N/N=C/c1ccc(Cl)cc1Cl`, the TGI in the test with CAKI-1 renal was above 100 µM; with HL-60(TB) leukemia, above 100 µM; in the test with SK-MEL-2 melanoma, 51.3 µM; with ACHN renal it was above 100 µM; with DU-145 prostate it was above 100 µM; with SF-268 CNS, above 100 µM. Also, the TGI with OVCAR-4 ovarian was 85.5 µM; with SK-MEL-28 melanoma, above 100 µM; in the test on SNB-75 CNS, 36.5 µM; with UACC-257 melanoma it was 70.9 µM; in the test with SF-539 CNS, above 100 µM; with IGROV1 ovarian, above 100 µM. Moreover, the TGI in the test with LOX IMVI melanoma, in the test with NCI-H23 lung, with OVCAR-3 ovarian, with OVCAR-8 ovarian, in the test with UO-31 renal and in the test on EKVX NSCLC was above 100 µM throughout.
Take `CC(C)(C)c1cc(C2NCCO2)cc(C(C)(C)C)c1O` (centres undefined): the TGI with CAKI-1 renal, with HL-60(TB) leukemia, in the test on SK-MEL-2 melanoma, with ACHN renal, with DU-145 prostate and with SF-268 CNS was above 100 µM each time. The TGI with OVCAR-4 ovarian was above 100 µM; with SK-MEL-28 melanoma it was above 100 µM; in the test with SNB-75 CNS it was 30.6 µM; in the test with UACC-257 melanoma it was above 100 µM; with SF-539 CNS, above 100 µM; in the test on IGROV1 ovarian it was above 100 µM. Besides, the TGI in the test on LOX IMVI melanoma, in the test on NCI-H23 lung, in the test with OVCAR-3 ovarian, in the test with NCI-H460 lung, in the test with OVCAR-8 ovarian and in the test on EKVX NSCLC was above 100 µM each time.
Consider `O=C1SS(=O)c2ccccc21` (centres undefined), for which the TGI with CAKI-1 renal, with HL-60(TB) leukemia, in the test with SK-MEL-2 melanoma, in the test with ACHN renal, in the test with DU-145 prostate and in the test on OVCAR-4 ovarian was above 100 µM throughout. Also, the TGI with SK-MEL-28 melanoma, in the test on SNB-75 CNS, with UACC-257 melanoma, with SF-539 CNS, in the test on IGROV1 ovarian and in the test with LOX IMVI melanoma was above 100 µM in each case. Further, the TGI in the test with NCI-H23 lung, in the test with OVCAR-3 ovarian, with NCI-H460 lung, with OVCAR-8 ovarian, with UO-31 renal and in the test with EKVX NSCLC was above 100 µM throughout.
Regarding `COc1cc(C)c(/C=C/C(=O)N2C(=O)OC[C@@H]2c2ccccc2)c(C)c1`, the TGI in the test with CAKI-1 renal, in the test on HL-60(TB) leukemia, in the test with SK-MEL-2 melanoma, with ACHN renal, in the test on DU-145 prostate and in the test on SF-268 CNS was above 100 µM in each case. The TGI in the test with OVCAR-4 ovarian, in the test on SK-MEL-28 melanoma, in the test on SNB-75 CNS, with UACC-257 melanoma, in the test with SF-539 CNS and in the test on IGROV1 ovarian was above 100 µM throughout. Besides, the TGI in the test on LOX IMVI melanoma, in the test on NCI-H23 lung, in the test with OVCAR-3 ovarian, with OVCAR-8 ovarian, in the test on UO-31 renal and in the test on EKVX NSCLC was above 100 µM throughout.
Turning to `Cc1nc2sc3ccccc3n2c(=O)c1N=Nc1ccc(Br)cc1`, the TGI in the test on CAKI-1 renal, in the test with HL-60(TB) leukemia, in the test on SK-MEL-2 melanoma, in the test on ACHN renal, in the test with DU-145 prostate and with SF-268 CNS was above 100 µM throughout. The TGI in the test with OVCAR-4 ovarian, in the test with SK-MEL-28 melanoma, with SNB-75 CNS, in the test on UACC-257 melanoma, in the test on SF-539 CNS and in the test with IGROV1 ovarian was above 100 µM throughout. Moreover, the TGI in the test with LOX IMVI melanoma, with NCI-H23 lung, in the test on OVCAR-3 ovarian, with NCI-H460 lung, with OVCAR-8 ovarian and with EKVX NSCLC was above 100 µM throughout.
As to `COc1cc(/C=C2\C[C@H]3[C@@H]4CC=C5C=C(N6CCCC6)CC[C@]5(C)[C@H]4CC[C@]3(C)C2=O)cc(OC)c1OC`, the TGI with CAKI-1 renal came out at 7.61 µM; in the test with HL-60(TB) leukemia, 17.8 µM; in the test on SK-MEL-2 melanoma, 13 µM; in the test with ACHN renal, 5.46 µM; in the test on DU-145 prostate it was 12.8 µM; in the test with SF-268 CNS, 5.05 µM. Moreover, the TGI with OVCAR-4 ovarian turned out to be 22.5 µM; with SK-MEL-28 melanoma, 19.5 µM; in the test with SNB-75 CNS, 15.9 µM; in the test with UACC-257 melanoma it was 9.48 µM; in the test with SF-539 CNS, 12.5 µM; in the test with IGROV1 ovarian, 3.83 µM. Further, the TGI in the test on LOX IMVI melanoma is 2.87 µM; with NCI-H23 lung, 7.96 µM; with OVCAR-3 ovarian it was 4.07 µM; in the test with OVCAR-8 ovarian, 6.1 µM; in the test with UO-31 renal it was 8.48 µM; in the test with EKVX NSCLC, 16.5 µM.
